“Also recorded” adds a separate entry of the source. Read-outs that look alike come from different tables or passages of the source.
Columns and labels:
KG1a cells = assay: In vitro cytotoxicity, Annexin V/propidium iodide assay in KG1a cells; format: cell-based; details: for change of potency (mean LD50) under hypoxic versus normoxic conditions: 5% oxygen
Procedure: The acute myeloid leukaemia (AML) KG1a cell line was maintained in RPMI medium (Invitrogen, Paisley, UK) supplemented with 100 units/mL penicillin, 100 μg/mL streptomycin and 20% foetal calf serum. Cells were subsequently aliquoted (10^5 cells/100 μL) into 96-well plates and were incubated at 37° C. in a humidified normoxic (20% oxygen) or hypoxic (1% or 5% oxygen) atmosphere for 48 h in the presence of clofarabine, or clofarabine diphosphate phosphoramidates of the invention (1×10^−10M-1×10^−6M). In addition, control cultures were carried out to which no drug was added. Cells were subsequently harvested by centrifugation and were analysed by flow cytometry using the Annexin V assay.
Cultured cells were harvested by centrifugation and then resuspended in 195 μL of calcium-rich buffer. Subsequently, 5 μL of Annexin V (Caltag Medsystems, Botolph Claydon, UK) was added to the cell suspension and cells were incubated in the dark for 10 mins prior to washing. Cells were finally resuspended in 190 μL of calcium-rich buffer together with 10 μL of propidium iodide. Apoptosis was assessed by dual-colour immunofluorescent flow cytometry as described previously. Subsequently LD50 values (the dose required to kill 50% of the cells in a culture) were calculated for each nucleoside analogue and diphosphate phosphoramidate.
The data obtained in these experiments were evaluated using one-way ANOVA. All data was confirmed as Gaussian or a Gaussian approximation using the omnibus K2 test. LD50 values were calculated from the non-linear regression and line of best-fit analysis of the sigmoidal dose-response curves. All statistical analyses were performed using Graphpad Prism 6.0 software (Graphpad Software Inc., San Diego, Calif.).
The in vitro drug sensitivity of KG1a cells was assessed using the Annexin V/propidium iodide assay.

MCF-7 = assay: CellTiterGlo cell viability assay, MCF-7; format: cell-based; details: Homo sapiens, MCF7, 72 h, MCF-7, 72 h; for EC50: read-out: Ab EC50
Summary of the method: (§1)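 Viability was measured by CellTiterGlo luminescence after 3 days of compound exposure, tested in duplicate at nine concentrations (3.16-fold steps, 198 μM top, 19.8 nM bottom, 0.5% DMSO final). Outputs were absolute EC50 and maximal percent inhibition at the highest dose.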

KG-1 = assay: CellTiterGlo cell viability assay, KG-1; format: cell-based; details: Homo sapiens, KG-1, 72 h
Summary of the method: as §1

in vitro = details: human, pooled cryopreserved hepatocytes, pH 7.3
K562 = assay: CellTiterGlo cell viability assay, K562; format: cell-based; details: for EC50: read-out: Ab EC50
Summary of the method: as §1

CCRF-CEM = assay: CellTiterGlo cell viability assay, CCRF-CEM; format: cell-based; details: 72 h; for EC50: read-out: Ab EC50
Summary of the method: as §1

HT29 = assay: CellTiterGlo cell viability assay, HT29; format: cell-based; details: Homo sapiens, HT-29, 72 h, HT29, 72 h; for EC50: read-out: Ab EC50
Summary of the method: as §1

MOLT-4 = assay: CellTiterGlo cell viability assay, MOLT-4; format: cell-based; details: MOLT-4, 72 h; for EC50: read-out: Ab EC50
Summary of the method: as §1

OVCAR 3 = assay: CellTiterGlo cell viability assay, OVCAR 3; format: cell-based; details: for EC50: OVCAR 3, 72 h, read-out: Ab EC50
Summary of the method: as §1

RL = assay: CellTiterGlo cell viability assay, RL; format: cell-based; details: Homo sapiens, 72 h; for EC50: read-out: Ab EC50
Summary of the method: as §1

[1] = percentage inhibition at the highest concentration tested, read-out: Top Inhibit
[2] = Homo sapiens, percentage inhibition at the highest concentration tested, read-out: Top Inh

For `Nc1nc(Cl)nc2c1ncn2[C@@H]1O[C@H](CO)[C@@H](O)[C@@H]1F` [Clofarabine, reference compound], the “change of potency (mean LD50) under hypoxic versus normoxic conditions” value (KG1a cells; in words) was “significant loss in potency under hypoxic conditions; also recorded: significant reduction in potency”, the “change of potency (mean LD50) under hypoxic versus normoxic conditions” value (KG1a cells; in words, listed as clofarabine) was “significant increase in mean LD50 under hypoxic conditions; also recorded: significant reduction in potency” and the “Hypoxia Mean LD50” value (KG1a cells; 48 h, hypoxic (5% O2)) was 53.1 nM. The “Mean LD50 (Normoxia Mean LD50)” value (KG1a cells; 48 h, normoxic (20% oxygen)) was 16.9 nM, the “mean LD50 under hypoxic conditions” value (KG1a cells; hypoxic (5% oxygen)) was 53.1 nM and the “potency in KG1a cells (dose-response curves)” value (KG1a cells; in words) was “highest potency”. For the same compound, the “mean LD50” value (KG1a cells; normoxic) was 16.9 nM, the “Ratio Normoxia/Hypoxia” value (KG1a cells; ratio of mean LD50 values) was 31.8 and the EC50 (MCF-7; Table 3 classes) was 0.2 to 2 µM. For the same compound, the EC50 (MCF-7; Table 4 classes) was 0.2 to 1 µM, the inhibition at 198 µM (MCF-7; [1]) was 55% and the EC50 (KG-1; Table 4 classes, read-out: Ab EC50) was < 0.2 µM. For the same compound, the inhibition at 198 µM (KG-1; [1]) was 93%, the half-life at 1 μM (in vitro) was > 2 h and the inhibition at 198 µM (K562; Homo sapiens, K562, 72 h, percentage inhibition at the highest concentration tested, read-out: Top Inh) was 23%. The EC50 (K562; Homo sapiens, K562, 72 h, Table 3 classes) was > 10 µM, the EC50 (K562; K 562, 72 h, Table 4 classes) was > 10 µM and the EC50 (CCRF-CEM; Table 4 classes) was < 0.2 µM. For the same compound, the EC50 (CCRF-CEM; Homo sapiens, Table 3 classes) was < 0.2 µM, the inhibition at 198 µM (CCRF-CEM; [2]) was 98.7% and the EC50 (HT29; Table 3 classes) was 0.2 to 2 µM. The EC50 (HT29; Table 4 classes) was 0.2 to 1 µM, the inhibition at 198 µM (HT29; [1]) was 64% and the inhibition at 198 µM (MOLT-4; [2]) was 84.1%. For the same compound, the EC50 (MOLT-4; Homo sapiens, Table 3 classes) was < 0.2 µM, the EC50 (MOLT-4; Table 4 classes) was < 0.2 µM and the inhibition at 198 µM (OVCAR 3; Homo sapiens, OVCAR-3, 72 h, percentage inhibition at the highest concentration tested, read-out: Top Inhibit) was 48%. For the same compound, the EC50 (OVCAR 3; Homo sapiens, Table 3 classes) was > 10 µM, the EC50 (OVCAR 3; Table 4 classes) was > 10 µM and the EC50 (RL; Table 3 classes) was 0.2 to 2 µM. For the same compound, the EC50 (RL; Table 4 classes) was 0.2 to 1 µM and the inhibition at 198 µM (RL; percentage inhibition at the highest concentration tested, read-out: Top Inh) was 77%.

From patent US11560400B2, “Salts of diphosphate phosphoramidate of nucleosides as anticancer compounds” (NuCana plc, priority 2017, dated 2023)
